Patent publication US8796460B2, “Compounds for inhibiting KSP kinesin activity” (Mercky Sharp & Dohme Corp., priority 2007, dated 2014)

system: HCT116 colon cancer cells; experiment: KSP Cellular Assay (percent of cells staining positive for Phos-Histone H3 / Phos-MPM2); assay type: cell-based; details: Homo sapiens, HCT-116, 16 h, Table 601; HCT116 cells, 16 hours with drug; read-out: EC50 (nM) Range
Procedure: HCT116 colon cancer cells were grown in DMEM:F12 media with 10% heat inactivated FBS at 37 degrees with 5% CO2. Cells were plated at 7,500 cells per well in PDL coated 384-well tissue culture plates. 6 hours later media was removed and new media containing drug was added. Cells were incubated with drug for 16 hours. All further steps were performed at room temperature in the dark. Cells were fixed with 25 ul/well Prefer fixation solution plus 250 nM Hoechst dye and incubated for 30 minutes. The fixation solution was removed and cells were washed with PBS. Cells were then permeabilized with 25 ul/well 0.2% Triton-X in PBS and incubated for 10 minutes. Cells were washed with PBS and then incubated with 25 ul/well PBS containing 3% FBS for 30 minutes. Cells were then stained overnight at 4 degrees with 25 ul/well antibody solution in PBS plus 3% FBS. Antibodies used were Phos-Histone H3 (ser10)-Alexa Flur 488 Conjugate and Phos-MPM2 Texas Red Conjugate. Cells were washed with PBS and then immunofluorescence images captured with HT Pathway microscope. The percent of cells staining positive was calculated and EC50 values for the compounds of the invention that were tested were determined using Excel XLfit.
EC50 Determinations: Dose-response curves were plotted from inhibition data generated each in duplicate, from 8 point serial dilutions of inhibitory compounds. Concentration of compound was plotted against enzyme activity (OD reading). To generate EC50 values, the dose-response curves were then fitted to a standard sigmoidal curve and EC50 values were derived by nonlinear regression analysis.

Row | EC50 [nM] | SMILES
1 | 500 to 1000 | CN(C)C(=O)N1N=C(c2cc(F)ccc2F)SC12CCc1ccccc12 (stereo not shown) [compound 602]
2 | > 1000 | CN(C)C(=O)N1N=C(c2cc(F)ccc2F)SC12CCCc1sccc12 (stereo not shown) [compound 603]

same assay, conditions: Homo sapiens, HCT-116, 16 h, Table 701; HCT116 cells, 16 hours with drug; read-out: EC50 (nM) Range

Row | EC50 [nM] | SMILES
3 | > 1000 | NCCN1N=C(c2cc(F)ccc2F)SC12CCOc1ccccc12 (stereo not shown) [compound 701]
4 | > 1000 | CC(C)N1N=C(c2cc(F)ccc2F)SC12CCOc1ccccc12 (stereo not shown) [compound 702]
5 | > 1000 | CCN1N=C(c2cc(F)ccc2F)SC12CCOc1ccccc12 (stereo not shown) [compound 703]
6 | > 1000 | COCCN1N=C(c2cc(F)ccc2F)SC12CCOc1ccccc12 (stereo not shown) [compound 704]

same assay, conditions: Homo sapiens, HCT-116, 16 h, Table 801; HCT116 cells, 16 hours with drug; read-out: EC50 (nM) Range

Row | EC50 [nM] | SMILES
7 | ≤ 500 | CC(=O)N1N=C(c2cc(F)ccc2F)S[C@@]12c1cc(F)ccc1OC[C@H]2CCN [compound 801]
8 | > 1000 | CC(=O)N1N=C(c2cc(F)ccc2F)S[C@]12c1cc(F)ccc1OC[C@@H]2CCN [compound 802]
9 | ≤ 500 | CC(=O)N1N=C(c2cc(F)ccc2F)S[C@]12c1cc(F)ccc1OC[C@H]2CCN [compound 803]
10 | ≤ 500 | CC(=O)N1N=C(c2cc(F)ccc2F)S[C@@]12c1cc(F)ccc1OC[C@@H]2CCN [compound 804]
11 | ≤ 500 | CC(=O)N1N=C(c2cc(F)ccc2F)S[C@@]12c1cc(F)c(F)cc1OC[C@H]2CCN [compound 807]
12 | > 1000 | CC(=O)N1N=C(c2cc(F)ccc2F)S[C@]12c1cc(F)c(F)cc1OC[C@@H]2CCN [compound 808]
13 | ≤ 500 | CC(=O)N1N=C(c2cc(F)ccc2F)S[C@@]12c1cccc(F)c1OC[C@H]2CCN [compound 809]
14 | > 1000 | CC(=O)N1N=C(c2cc(F)ccc2F)S[C@]12c1cccc(F)c1OC[C@@H]2CCN [compound 810]
15 | ≤ 500 | CC(=O)N1N=C(c2cc(F)ccc2F)S[C@@]12c1cc(Cl)ccc1OC[C@H]2CCN [compound 811]
16 | > 1000 | CC(=O)N1N=C(c2cc(F)ccc2F)S[C@]12c1cc(Cl)ccc1OC[C@@H]2CCN [compound 812]
17 | ≤ 500 | CC(=O)N1N=C(c2cc(F)ccc2F)S[C@@]12c1ccccc1OC[C@H]2CCNO [compound 813]
18 | ≤ 500 | CC(=O)N1N=C(c2cc(F)ccc2F)S[C@@]12c1ccccc1OC[C@@H]2CCN [compound 814]
19 | ≤ 500 | CC(=O)N1N=C(c2cc(F)ccc2F)S[C@@]12c1ccccc1OC[C@H]2CCN [compound 815]
20 | > 1000 | CC(=O)N1N=C(c2cc(F)ccc2F)S[C@]12c1ccccc1OC[C@@H]2CCN [compound 816]
21 | ≤ 500 | CC(=O)N1N=C(c2cc(F)ccc2F)S[C@]12c1ccccc1OC[C@H]2CCN [compound 817]

same assay, conditions: Homo sapiens, HCT-116, 16 h, Table 1201 (Example 1201); HCT116 cells, 16 hours with drug; read-out: EC50 (nM) Range

Row | EC50 [nM] | SMILES
22 | ≤ 500 | CCNCC[C@@H]1COc2ccccc2[C@@]12SC(c1cc(F)ccc1F)=NN2C(C)=O [compound 1202]
23 | ≤ 500 | CC(=O)N1N=C(c2cc(F)ccc2F)S[C@@]12c1ccccc1OC[C@H]2CCNC(C)C [compound 1203]

same assay, conditions: Homo sapiens, HCT-116, 16 h, table of Example 901; HCT116 cells, 16 hours with drug; read-out: EC50 (nM) Range

Row | SMILES | EC50 [nM]
24 | CC(=O)N1N=C(c2cc(F)ccc2F)S[C@@]12c1ccccc1OC[C@@H]2CC#N [compound 902] | ≤ 500
25 | CC(=O)N1N=C(c2cc(F)ccc2F)S[C@@]12c1ccccc1OC[C@H]2CC#N [compound 903] | ≤ 500
26 | CC(=O)N1N=C(c2cc(F)ccc2F)S[C@]12c1ccccc1OC[C@H]2CC#N [compound 904] | 500 to 1000
27 | CC(=O)N1N=C(c2cc(F)ccc2F)S[C@]12c1ccccc1OC[C@@H]2CC#N [compound 905] | > 1000

The remaining lines, values ahead:

Row | EC50 [nM] | SMILES
28 | ≤ 500 | CC(=O)N1N=C(c2cc(F)ccc2F)S[C@]12c1ccccc1C[C@H]2CC#N [compound 906]
29 | ≤ 500 | CC(=O)N1N=C(c2cc(F)ccc2F)S[C@]12c1ccccc1C[C@@H]2CC#N [compound 907]

same assay, conditions: Homo sapiens, HCT-116, 16 h, table of Example 1004; HCT116 cells, 16 hours with drug; read-out: EC50 (nM) Range

Row | EC50 [nM] | SMILES
30 | ≤ 500 | CC(=O)N1N=C(c2cc(F)ccc2F)S[C@@]12c1ccccc1OC[C@H]2CCCN [compound 1004]
31 | > 500 | CC(=O)N1N=C(c2cc(F)ccc2F)S[C@]12c1ccccc1OC[C@@H]2CCCN [compound 1005]

same assay, conditions: Homo sapiens, HCT-116, 16 h, table of Example 1801 (headed Table 1201); HCT116 cells, 16 hours with drug; read-out: EC50 (nM) Range

Row | EC50 [nM] | SMILES
32 | ≤ 500 | CC(=O)N1N=C(c2ccccc2F)S[C@@]12c1ccccc1OC[C@H]2CCN [compound 1802]
33 | ≤ 500 | CC(=O)N1N=C(c2cc(Cl)ccc2F)S[C@@]12c1ccccc1OC[C@H]2CCN [compound 1803]
34 | > 1000 | CC(=O)N1N=C(c2ccccc2F)S[C@]12c1ccccc1OC[C@@H]2CCN [compound 1804]
35 | > 1000 | CC(=O)N1N=C(c2cc(Cl)ccc2F)S[C@]12c1ccccc1OC[C@@H]2CCN [compound 1805]
36 | ≤ 500 | CC(=O)N1N=C(c2cc(C(F)(F)F)ccc2F)S[C@@]12c1ccccc1OC[C@H]2CCN [compound 1806]
37 | > 1000 | CC(=O)N1N=C(c2cc(C(F)(F)F)ccc2F)S[C@]12c1ccccc1OC[C@@H]2CCN [compound 1807]
38 | ≤ 500 | CC(=O)N1N=C(c2ccccc2)S[C@@]12c1ccccc1OC[C@H]2CCN [compound 1808]
39 | > 1000 | CC(=O)N1N=C(c2ccccc2)S[C@]12c1ccccc1OC[C@@H]2CCN [compound 1809]
40 | ≤ 500 | CC(=O)N1N=C(c2cccc(F)c2)S[C@@]12c1ccccc1OC[C@H]2CCN [compound 1810]
41 | > 1000 | CC(=O)N1N=C(c2cccc(F)c2)S[C@]12c1ccccc1OC[C@@H]2CCN [compound 1811]
42 | ≤ 500 | CC(=O)N1N=C(c2cccc(Cl)c2)S[C@@]12c1ccccc1OC[C@H]2CCN [compound 1812]
43 | > 1000 | CC(=O)N1N=C(c2cccc(Cl)c2)S[C@]12c1ccccc1OC[C@@H]2CCN [compound 1813]
44 | ≤ 500 | CC(=O)N1N=C(c2cccc(C(F)(F)F)c2)S[C@@]12c1ccccc1OC[C@H]2CCN [compound 1814]
45 | ≤ 500 | CC(=O)N1N=C(c2cc(F)cc(F)c2)S[C@@]12c1ccccc1OC[C@H]2CCN [compound 1815]
46 | > 1000 | CC(=O)N1N=C(c2ccc(F)cc2F)S[C@]12c1ccccc1OC[C@@H]2CCN [compound 1816]
47 | > 1000 | CC(=O)N1N=C(c2cccc(C(F)(F)F)c2)S[C@]12c1ccccc1OC[C@@H]2CCN [compound 1817]
48 | > 1000 | CC(=O)N1N=C(c2cc(F)cc(F)c2)S[C@]12c1ccccc1OC[C@@H]2CCN [compound 1818]
49 | ≤ 500 | CC(=O)N1N=C(c2ccc(F)cc2F)S[C@@]12c1cc(F)ccc1OC[C@H]2CCN [compound 1819]
50 | ≤ 500 | CC(=O)N1N=C(c2ccc(F)c(F)c2)S[C@@]12c1cc(F)ccc1OC[C@H]2CCN [compound 1820]
51 | ≤ 500 | CC(=O)N1N=C(c2cc(F)cc(F)c2)S[C@@]12c1cc(F)ccc1OC[C@H]2CCN [compound 1821]
52 | > 1000 | CC(=O)N1N=C(c2ccc(F)cc2F)S[C@]12c1cc(F)ccc1OC[C@@H]2CCN [compound 1822]
53 | > 1000 | CC(=O)N1N=C(c2ccc(F)c(F)c2)S[C@]12c1cc(F)ccc1OC[C@@H]2CCN [compound 1823]
54 | > 1000 | CC(=O)N1N=C(c2cc(F)cc(F)c2)S[C@]12c1cc(F)ccc1OC[C@@H]2CCN [compound 1824]

same assay, conditions: Homo sapiens, HCT-116, 16 h, table of Example 1901; HCT116 cells, 16 hours with drug; read-out: EC50 (nM) Range

Row | EC50 [nM] | SMILES
55 | ≤ 500 | CO[C@@H](C)C(=O)N1N=C(c2cc(F)ccc2F)S[C@@]12c1cc(F)ccc1OC[C@H]2CCN [compound 1902]
56 | > 1000 | CO[C@H](C)C(=O)N1N=C(c2cc(F)ccc2F)S[C@]12c1cc(F)ccc1OC[C@@H]2CCN [compound 1903]
57 | ≤ 500 | CO[C@H](C)C(=O)N1N=C(c2cc(F)ccc2F)S[C@@]12c1cc(F)ccc1OC[C@H]2CCN [compound 1904]
58 | > 1000 | COCCOCC(=O)N1N=C(c2cc(F)ccc2F)S[C@]12c1cc(F)ccc1OC[C@@H]2CCN [compound 1905]
